Measurements: patent US20260284207A1, “COMPOUND FOR USE AS A PEPTIDE BINDER SPECIFICALLY BINDING TO THE UBIQUITIN LIGASE ADAPTER FBXO31” (ETH ZÜRICH, priority 2022, published 2026)
fluorescein = N-terminal fluorescein label, coupled as FITC

Experiments:
FBXO31 = molecular target: T1, FBXO31 (Homo sapiens, UniProt Q5XUX0); test: Competitive fluorescence polarization anisotropy (displacement of fluorescent peptide probes); type: binding; settings: probes FL-lib-SVV-NH2, FL-CycD1-NH2, FL-Pep2-NH2; 2 nM probe, 200 nM FBXO31
T1 construct: histidine tag (Ulp1-cleavable) (cleaved yes); made in house; host or cells: bacteria (pET28b expression vector)
Protocol: To test whether a lower molecular weight probe could be derived based on these rules, the C-terminally amidated tripeptide Ser-Val-Val-NH2 (302.37 g/mol) was tested.
Increasing concentrations of recombinant FBXO31/SKP1 complexes were mixed with 20 nM fluorescein-labeled peptides in FPA-buffer (150 mM NaCl, 25 mM HEPES, pH 7.5) and incubated for 30 minutes at room temperature. Fluorescence polarization was measured on a Victor Nivo Plate Reader (Perkin Elmer). Following subtraction of baseline signal, polarization levels were normalized to the highest signal of each pair of amidated and non-amidated peptides. Binding curves were fitted by least squares regression and half-maximal binding concentrations were extracted using Prism 9 (Graphpad) assuming one-site binding and no contribution from unspecific interaction. Competition binding assays were performed in the same way using a fixed ratio of 2 nM fluorescent probe and 200 nM FBXO31 and 0.67 nM to 100 μM competing ligand.

K562 cells = test: Fluorescent reporter protein stability assay in nucleofected K562 cells; type: cell-based, human; settings: sfGFP carrying a primary C-terminal amide
Protocol: HEK293T cells were cultured in DMEM containing Glutamax (Thermo Fisher Scientific) and K562 cells were cultured in RPMI 1640 containing Glutamax (Thermo Fisher Scientific) under standard conditions. Growth media were further supplemented with 10% (v/v) Fetal Bovine Serum (Thermo Fisher Scientific) and 100 U/ml Penicillin-Streptomycin (Thermo Fisher Scientific). Stably transduced cells were selected using 2 μg/ml Puromycin (Thermo Fisher Scientific), 500 μg/ml Geneticin (Thermo Fisher Scientific) or 10 μg/ml Blasticidin (Thermo Fisher Scientific) starting two days after transduction. Induction of doxycycline-dependent vectors was performed using 500 ng/ml doxycycline (Merck) every 48 hours. […]
For measuring stability of recombinant or semi-synthetic proteins, 1.5-2.0×10^5 cells were nucleofected with 200 pmol of protein in 20 μl cuvettes using a 4D nucleofector device (Lonza) to according the manufacturer's recommendations. Following protein delivery, cells were left to recover at 37° C. for 30-45 minutes before measuring initial mean fluorescence intensity values (to) on a Attune N×T Flow Cytometer (Thermo Fisher Scientific). […] Baseline-fluorescence values of mock nucleofected cells receiving no protein were measured and subtracted for each time point and baseline-corrected fluorescence values were normalized to t0. […]

[1] = molecular target: T2, recombinant FBXO31/SKP1 complexes (Homo sapiens, UniProt Q5XUX0); test: Fluorescence polarization (FP) binding of fluorescein-labeled peptides to recombinant FBXO31/SKP1; settings: wild type FBXO31/SKP1
T2 construct: histidine tag (Ulp1-cleavable) (cleaved yes); made in house; host or cells: bacteria (pET28b expression vector)
Protocol: It was then tested whether SCF/FBXO31 directly binds and ubiquitylates amidated clients, or whether it plays an indirect role in CTAP clearance. To this end, recombinant FBXO31 in complex with the binding partner SKP1 was purified and its affinity for various peptides was measured by fluorescence polarization (FP).
In this regard, it was first tested whether FBXO31 specifically binds C-terminal amides rather than side chain amides in asparagine or glutamine. […] Hydrophobic residues were most strongly bound, with X—F—CONH2 as the best substrate (KD≈6 nM), followed by other and then uncharged and charged hydrophilic side chains.
Codon-optimized CDNAs of SKP1 and FBXO31 were generated by gene synthesis (Integrated DNA Technologies) and cloned into the bacterial expression vector pET28b. Expression was performed at 18° C. overnight in presence of 0.5 mM IPTG. Following bacterial cell lysis by sonication in buffer NBA (200 mM NaCl, 50 mM HEPES, 25 mM imidazole, 5 mM DTT freshly added, pH 8.0), recombinant protein was enriched on a HisTrap FF column (Cytiva) by elution with 250 mM imidazole. […]
Increasing concentrations of recombinant FBXO31/SKP1 complexes were mixed with 20 nM fluorescein-labeled peptides in FPA-buffer (150 mM NaCl, 25 mM HEPES, pH 7.5) and incubated for 30 minutes at room temperature. Fluorescence polarization was measured on a Victor Nivo Plate Reader (Perkin Elmer). […]

T1 sequence (Q5XUX0 whole entry): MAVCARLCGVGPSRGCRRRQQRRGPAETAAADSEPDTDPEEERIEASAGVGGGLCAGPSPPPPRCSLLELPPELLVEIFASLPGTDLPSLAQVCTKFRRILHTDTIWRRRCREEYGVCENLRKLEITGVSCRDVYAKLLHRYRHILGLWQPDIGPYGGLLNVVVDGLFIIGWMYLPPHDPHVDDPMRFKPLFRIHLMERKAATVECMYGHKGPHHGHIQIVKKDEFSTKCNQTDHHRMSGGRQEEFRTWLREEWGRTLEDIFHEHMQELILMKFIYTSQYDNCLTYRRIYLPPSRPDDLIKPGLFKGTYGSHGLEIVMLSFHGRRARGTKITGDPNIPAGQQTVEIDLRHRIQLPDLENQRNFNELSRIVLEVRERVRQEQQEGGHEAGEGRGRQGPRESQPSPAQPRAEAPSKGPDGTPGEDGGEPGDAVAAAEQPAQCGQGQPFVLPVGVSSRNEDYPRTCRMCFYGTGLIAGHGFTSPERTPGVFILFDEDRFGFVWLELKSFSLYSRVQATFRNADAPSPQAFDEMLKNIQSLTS
T1 sequence (P63208 whole entry partner): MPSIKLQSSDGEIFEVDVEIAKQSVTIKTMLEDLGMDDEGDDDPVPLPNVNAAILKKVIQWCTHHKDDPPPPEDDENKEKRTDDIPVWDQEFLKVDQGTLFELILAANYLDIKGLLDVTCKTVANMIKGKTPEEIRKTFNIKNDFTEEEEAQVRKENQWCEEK
T2 sequence (Q5XUX0 whole entry): as the sequence (Q5XUX0 whole entry) above
T2 sequence (P63208 whole entry partner): as the sequence (P63208 whole entry partner) above

Row | Compound | effect of inhibitor on destabilization of C-terminally amidated sfGFP (K562 cells) | further results
1 | Ser-Val-Val-NH2 |  | displacement of fluorescent peptide probes from FBXO31 (FBXO31): efficiently displace
2 | CC[C@H](C)[C@H](NC(=O)[C@H]([C@@H](C)CC)N(C)C(C)=O)C(=O)N[C@H](C(=O)N[C@@H](CC(C)C)C(=O)[C@@]1(C)CO1)[C@@H](C)O [epoxomicin] | fully blunted | 
3 | NS(=O)(=O)OC[C@H]1C[C@@H](Nc2ccnc3cc(-c4cccc(SC(F)(F)F)c4)nn23)[C@H](O)[C@@H]1O [TAK243] | fully blunted | 
4 | [Fluorescein]-KKYRYDVPDYSVV-NH2 (fluorescein-KKYRYDVPDYSVV-NH2) [FL-lib-SVV-NH2] |  | binding/affinity for FBXO31 (in words) [1]: high affinity
